Results published in patent publication US12655116B2, “Substituted isophthalic acid diamides” (Bayer Aktiengesellschaft, priority 2020, dated 2026).

How the values were obtained:
ABUTH = assay: Pre-emergence herbicidal action against ABUTH; assay type: in vivo, Abutilon theophrasti; details: Abutilon theophrasti, 504 h; for pest or weed control at 80 g/ha: scored visually after 3 weeks vs untreated controls (100% = plants have died, 0% = like control plants); for pest or weed control at 320 g/ha: Dosage: 320 g/ha, scored visually after 3 weeks, 100% = plants have died, 0% = like control plants
Method in brief: (§1)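 Greenhouse pots of sandy loam held seeds covered with soil, onto which the compound was applied before emergence. An aqueous suspension or emulsion of WP or EC was used at 600 to 800 l/ha with 0.2% wetting agent. Percent damage was judged visually at 3 weeks.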

ALOMY = assay: Pre-emergence herbicidal action against ALOMY; assay type: in vivo, Alopecurus myosuroides; details: Alopecurus myosuroides, pre-emergence, 504 h; for pest or weed control at 320 g/ha: scored visually after 3 weeks, 100% = plants have died, 0% = like control plants
Method in brief: as §1

AMARE [1] = assay: Pre-emergence herbicidal action against AMARE; assay type: in vivo, Amaranthus retroflexus; details: Amaranthus retroflexus, 504 h, 100% = plants have died, 0% = like control plants; for pest or weed control at 80 g/ha: scored visually after 3 weeks vs untreated controls; for pest or weed control at 320 g/ha: scored visually after 3 weeks
Method in brief: as §1

AVEFA [2] = assay: Pre-emergence herbicidal action against AVEFA; assay type: in vivo, Avena fatua; details: Avena fatua, 504 h, pre-emergence; for pest or weed control at 320 g/ha: scored visually after 3 weeks, 100% = plants have died, 0% = like control plants
Method in brief: as §1

ECHCG [3] = assay: Pre-emergence herbicidal action against ECHCG; assay type: in vivo, Echinochloa crus-galli; details: Echinochloa crus-galli, 504 h
Method in brief: as §1

HORMU [4] = assay: Pre-emergence herbicidal action against HORMU; assay type: in vivo, Hordeum murinum; details: Hordeum murinum, 504 h, pre-emergence
Method in brief: as §1

LOLRI [5] = assay: Pre-emergence herbicidal action against LOLRI; assay type: in vivo, Lolium rigidum; details: Lolium rigidum, 504 h, 320 g/ha
Method in brief: as §1

MATIN [6] = assay: Pre-emergence herbicidal action against MATIN; assay type: in vivo, Matricaria inodora; details: Tripleurospermum inodorum, 504 h; for pest or weed control at 80 g/ha: dosage 80 g/ha; for pest or weed control at 320 g/ha: dosage 320 g/ha
Method in brief: as §1

SETVI = assay: Pre-emergence herbicidal action against SETVI; assay type: in vivo, Setaria viridis; details: Setaria viridis, 504 h; for pest or weed control at 80 g/ha: dosage 80 g/ha; for pest or weed control at 320 g/ha: dosage 320 g/ha
Method in brief: as §1

STEME [7] = assay: Pre-emergence herbicidal action against STEME; assay type: in vivo, Stellaria media; details: Stellaria media, 504 h; for pest or weed control at 80 g/ha: dosage 80 g/ha; for pest or weed control at 320 g/ha: dosage 320 g/ha
Method in brief: as §1

VERPE [8] = assay: Pre-emergence herbicidal action against VERPE; assay type: in vivo, Veronica persica; details: Veronica persica, 504 h; for pest or weed control at 320 g/ha: dosage 320 g/ha
Method in brief: as §1

VIOTR [9] = assay: Pre-emergence herbicidal action against VIOTR; assay type: in vivo, Viola tricolor; details: Viola tricolor, 504 h; for pest or weed control at 80 g/ha: dosage 80 g/ha; for pest or weed control at 320 g/ha: dosage 320 g/ha
Method in brief: as §1

AMARE [10] = assay: Post-emergence herbicidal action against AMARE; assay type: in vivo, Amaranthus retroflexus; details: Amaranthus retroflexus, 504 h, visual assessment about 3 weeks after treatment, 100% = plants have died, 0% = like control plants
Method in brief: (§2)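 Foliar application at one-leaf stage of formulated test compounds, aqueous spray at 600–800 l/ha with 0.2% wetting agent. Greenhouse, optimal conditions, ~3 weeks; damage scored visually in % relative to untreated plants.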

AVEFA [11] = assay: Post-emergence herbicidal action against AVEFA; assay type: in vivo, Avena fatua; details: Avena fatua, 504 h, visual assessment about 3 weeks after treatment, 100% = plants have died, 0% = like control plants
Method in brief: as §2

ECHCG [12] = assay: Post-emergence herbicidal action against ECHCG; assay type: in vivo, Echinochloa crus-galli; details: Echinochloa crus-galli, 504 h; for pest or weed control at 20 g/ha: dosage 20 g/ha; for pest or weed control at 80 g/ha: dosage 80 g/ha
Method in brief: as §2

HORMU [13] = assay: Post-emergence herbicidal action against HORMU; assay type: in vivo, Hordeum murinum; details: Hordeum murinum, 504 h; for pest or weed control at 20 g/ha: dosage 20 g/ha; for pest or weed control at 80 g/ha: dosage 80 g/ha
Method in brief: as §2

LOLRI [14] = assay: Post-emergence herbicidal action against LOLRI; assay type: in vivo, Lolium rigidum; details: Lolium rigidum, 504 h, dosage 80 g/ha
Method in brief: as §2

MATIN [15] = assay: Post-emergence herbicidal action against MATIN; assay type: in vivo, Matricaria inodora; details: Tripleurospermum inodorum, 504 h; for pest or weed control at 20 g/ha: dosage 20 g/ha; for pest or weed control at 80 g/ha: dosage 80 g/ha
Method in brief: as §2

POLCO = assay: Post-emergence herbicidal action against POLCO; assay type: in vivo, Polygonum convolvulus; details: Fallopia convolvulus, 504 h; for pest or weed control at 80 g/ha: dosage 80 g/ha
Method in brief: as §2

STEME [16] = assay: Post-emergence herbicidal action against STEME; assay type: in vivo, Stellaria media; details: Stellaria media, 504 h
Method in brief: as §2

VERPE [17] = assay: Post-emergence herbicidal action against VERPE; assay type: in vivo, Veronica persica; details: Veronica persica, 504 h
Method in brief: as §2

VIOTR [18] = assay: Post-emergence herbicidal action against VIOTR; assay type: in vivo, Viola tricolor; details: Viola tricolor, 504 h
Method in brief: as §2

CCNC(=O)c1c(C(F)(F)F)ccc(C(=O)Nc2nnnn2CC)c1SC [Example 2-82]
pest or weed control at 80 g/ha (ABUTH): 100% | pest or weed control at 320 g/ha (ABUTH): 100% | pest or weed control at 320 g/ha (ALOMY): 100% | pest or weed control at 80 g/ha (AMARE [1]): 100% | pest or weed control at 320 g/ha (AMARE [1]): 100% | pest or weed control at 80 g/ha (AVEFA [2]): 100% | pest or weed control at 320 g/ha (AVEFA [2]): 100% | pest or weed control at 80 g/ha (ECHCG [3]): 100% | pest or weed control at 320 g/ha (ECHCG [3]): 100% | pest or weed control at 80 g/ha (HORMU [4]): 80% | pest or weed control at 320 g/ha (HORMU [4]): 100% | pest or weed control at 320 g/ha (LOLRI [5]): 90% | pest or weed control at 80 g/ha (MATIN [6]): 100% | pest or weed control at 320 g/ha (MATIN [6]): 100% | pest or weed control at 80 g/ha (SETVI): 100% | pest or weed control at 320 g/ha (SETVI): 100% | pest or weed control at 80 g/ha (STEME [7]): 100% | pest or weed control at 320 g/ha (STEME [7]): 100% | pest or weed control at 320 g/ha (VERPE [8]): 90% | pest or weed control at 80 g/ha (VIOTR [9]): 100% | pest or weed control at 320 g/ha (VIOTR [9]): 100% | pest or weed control at 20 g/ha (AMARE [10]): 90% | pest or weed control at 80 g/ha (AMARE [10]): 90% | pest or weed control at 20 g/ha (AVEFA [11]): 90% | pest or weed control at 80 g/ha (AVEFA [11]): 90% | pest or weed control at 20 g/ha (ECHCG [12]): 80% | pest or weed control at 80 g/ha (ECHCG [12]): 80% | pest or weed control at 20 g/ha (HORMU [13]): 80% | pest or weed control at 80 g/ha (HORMU [13]): 90% | pest or weed control at 80 g/ha (LOLRI [14]): 90% | pest or weed control at 20 g/ha (MATIN [15]): 90% | pest or weed control at 80 g/ha (MATIN [15]): 90% | pest or weed control at 80 g/ha (POLCO): 80% | pest or weed control at 20 g/ha (STEME [16]): 80% | pest or weed control at 80 g/ha (STEME [16]): 90% | pest or weed control at 20 g/ha (VERPE [17]): 80% | pest or weed control at 80 g/ha (VERPE [17]): 90% | pest or weed control at 20 g/ha (VIOTR [18]; 20 g/ha): 80% | pest or weed control at 80 g/ha (VIOTR [18]): 80%

CCNC(=O)c1c(C(F)F)ccc(C(=O)Nc2nnnn2CC)c1Cl [Example 2-148]
pest or weed control at 80 g/ha (ABUTH): 100% | pest or weed control at 320 g/ha (ABUTH): 100% | pest or weed control at 80 g/ha (ALOMY; 80 g/ha, scored visually after 3 weeks vs untreated controls (100% = plants have died, 0% = like control plants)): 90% | pest or weed control at 320 g/ha (ALOMY): 100% | pest or weed control at 80 g/ha (AMARE [1]): 100% | pest or weed control at 320 g/ha (AMARE [1]): 100% | pest or weed control at 80 g/ha (AVEFA [2]): 100% | pest or weed control at 320 g/ha (AVEFA [2]): 100% | pest or weed control at 80 g/ha (ECHCG [3]): 100% | pest or weed control at 320 g/ha (ECHCG [3]): 100% | pest or weed control at 80 g/ha (HORMU [4]): 90% | pest or weed control at 320 g/ha (HORMU [4]): 100% | pest or weed control at 320 g/ha (LOLRI [5]): 90% | pest or weed control at 80 g/ha (MATIN [6]): 100% | pest or weed control at 320 g/ha (MATIN [6]): 100% | pest or weed control at 80 g/ha (SETVI): 100% | pest or weed control at 320 g/ha (SETVI): 100% | pest or weed control at 80 g/ha (STEME [7]): 90% | pest or weed control at 320 g/ha (STEME [7]): 100% | pest or weed control at 80 g/ha (VERPE [8]; dosage 80 g/ha): 80% | pest or weed control at 320 g/ha (VERPE [8]): 100% | pest or weed control at 80 g/ha (VIOTR [9]): 100% | pest or weed control at 320 g/ha (VIOTR [9]): 100% | pest or weed control at 20 g/ha (AMARE [10]): 90% | pest or weed control at 80 g/ha (AMARE [10]): 90% | pest or weed control at 20 g/ha (AVEFA [11]): 90% | pest or weed control at 80 g/ha (AVEFA [11]): 90% | pest or weed control at 20 g/ha (ECHCG [12]): 80% | pest or weed control at 80 g/ha (ECHCG [12]): 90% | pest or weed control at 20 g/ha (HORMU [13]): 80% | pest or weed control at 80 g/ha (HORMU [13]): 90% | pest or weed control at 80 g/ha (LOLRI [14]): 80% | pest or weed control at 20 g/ha (MATIN [15]): 90% | pest or weed control at 80 g/ha (MATIN [15]): 90% | pest or weed control at 20 g/ha (POLCO; dosage 20 g/ha): 90% | pest or weed control at 80 g/ha (POLCO): 90% | pest or weed control at 20 g/ha (STEME [16]): 80% | pest or weed control at 80 g/ha (STEME [16]): 80% | pest or weed control at 20 g/ha (VERPE [17]): 80% | pest or weed control at 80 g/ha (VERPE [17]): 90% | pest or weed control at 80 g/ha (VIOTR [18]): 80%
